Molecules are shown by their SMILES.

The subject of this assay is NCI-H929 cells. The assay can be described thus: NCI-H929 proliferation experiment (CellTiter-Glo, 5 days). Format: cell-based. The note with it: Homo sapiens, 120 h, 5 days incubation, read-out: IC50 values for the inhibition of proliferation of NCI-H929 cells. The protocol:
The following method was used to determine the inhibitory activity of the compounds of the present disclosure on the proliferation of NCI-H929 cells. The experimental method was briefly described as follows.
NCI-H929 cells (ATCC, CRL-9068) were cultured in a complete medium (RPMI 1640 medium (Hyclone, SH30809.01) containing 10% fetal bovine serum (Corning, 35-076-CV) and 0.05 mM 2-mercaptoethanol (Sigma, M3148)). On the first day of the experiment, NCI-H929 cells were seeded in a 96-well plate at a density of 6000 cells/well with a complete medium to form 100 μL of cell suspension per well, and 10 μL of test compound prepared in a complete medium and diluted in a gradient was added to each well. The compound was firstly dissolved in DMSO, with an initial concentration of 10 mM, and then subjected to serial dilution at a 5-fold concentration gradient for a total of 9 concentration points, with a blank control of 100% DMSO. Another 5 μL of the compound dissolved in DMSO was added to 95 μL of complete medium, i.e., the compound was diluted 20-fold with the complete medium. Finally the compound diluted in the complete medium at 10 μL/well was added to the cell suspension, wherein the final concentrations of the compound were 9 concentration points obtained by 5-fold gradient dilution starting from 50 μM. A blank control containing 0.5% DMSO was set. The plate was incubated in a cell incubator at 37° C. with 5% CO2 for 5 days. On the sixth day, the 96-well cell culture plate was taken out, added with a CellTiter-Glo® luminescent cell activity detect reagent (Promega, G7573) at 50 μL/well, left to stand at room temperature for 10 min, and read for the luminescence signal values using a multi-mode microplate reader (PerkinElmer, EnVision 2015). IC50 values for the inhibitory activity of the compounds were calculated using Graphpad Prism software, with the results shown in Table 1.
On the technique in general: In ATP-based viability assays light output follows the ATP content of the culture.
Consider `N#Cc1ccc(N2CCC(Sc3ccc(COc4cccc5c4CN(C4CCC(=O)NC4=O)C5=O)cc3)CC2)c(F)c1` (centres unmarked) [Compound 1, 4-(4-((4-(((2-(2,6-dioxopiperidin-3-yl)-1-oxoisoindolin-4-yl)oxy)methyl)phenyl)thio)piperidin-1-yl)-3-fluorobenzonitrile], for which the IC50 stood at 0.34 nM. The figure for `N#Cc1ccc(N2CCC(Sc3ccc(COc4cccc5c4C(=O)N(C4CCC(=O)NC4=O)C5=O)cc3)CC2)c(F)c1` (centres unmarked) [Compound 2, 4-(4-((4-(((2-(2,6-dioxopiperidin-3-yl)-1,3-dioxoisoindolin-4-yl)oxy)methyl)phenyl)thio)piperidin-1-yl)-3-fluorobenzonitrile] is 4.36 nM; for `N#Cc1ccc(N2CCC(Sc3ccc(COc4cccc5c4CN([C@H]4CCC(=O)NC4=O)C5=O)cc3)CC2)c(F)c1` [Compound 3, (S)-4-(4-((4-(((2-(2,6-dioxopiperidin-3-yl)-1-oxoisoindolin-4-yl)oxy)methyl)phenyl)thio)piperidin-1-yl)-3-fluorobenzonitrile] it is 0.1 nM; for `N#Cc1ccc(N2CCC(Sc3ccc(COc4cccc5c4CN([C@H]4CCC(=O)NC4=O)C5=O)cc3F)CC2)c(F)c1` [Compound 4, (S)-4-(4-((4-(((2-(2,6-dioxopiperidin-3-yl)-1-oxoisoindolin-4-yl)oxy)methyl)-2-fluorophenyl)thio)piperidin-1-yl)-3-fluorobenzonitrile] it is 0.17 nM. The figure for `N#Cc1ccc(N2CCC(Sc3ccc(COc4cccc5c4CN([C@H]4CCC(=O)NC4=O)C5=O)c(F)c3)CC2)c(F)c1` [Compound 5, (S)-4-(4-((4-(((2-(2,6-dioxopiperidin-3-yl)-1-oxoisoindolin-4-yl)oxy)methyl)-3-fluorophenyl)thio)piperidin-1-yl)-3-fluorobenzonitrile] is 0.08 nM; for `N#Cc1ccc(N2CCC(Sc3ncc(COc4cccc5c4CN([C@H]4CCC(=O)NC4=O)C5=O)cn3)CC2)c(F)c1` [Compound 7, (S)-4-(4-((5-(((2-(2,6-dioxopiperidin-3-yl)-1-oxoisoindolin-4-yl)oxy)methyl)pyrimidin-2-yl)thio)piperidin-1-yl)-3-fluorobenzonitrile] it is 0.13 nM. The figure for `N#Cc1ccc(N2CCC(Sc3ccc(COc4cc(F)cc5c4CN([C@H]4CCC(=O)NC4=O)C5=O)cn3)CC2)c(F)c1` [Compound 8, (S)-4-(4-((5-(((2-(2,6-dioxopiperidin-3-yl)-6-fluoro-1-oxoisoindolin-4-yl)oxy)methyl)pyridin-2-yl)thio)piperidin-1-yl)-3-fluorobenzonitrile] is 0.28 nM; for `N#Cc1ccc(N2CCC(Sc3ccc(COc4cccc5c4CN([C@H]4CCC(=O)NC4=O)C5=O)nc3)CC2)c(F)c1` [Compound 9, (S)-4-(4-((6-(((2-(2,6-dioxopiperidin-3-yl)-1-oxoisoindolin-4-yl)oxy)methyl)pyridin-3-yl)thio)piperidin-1-yl)-3-fluorobenzonitrile] it is 0.9 nM.

With `N#Cc1ccc(N2CCC(Sc3ccc(COc4cccc5c4CN([C@H]4CCC(=O)NC4=O)C5=O)c(F)c3F)CC2)c(F)c1` [Compound 10, (S)-4-(4-((4-(((2-(2,6-dioxopiperidin-3-yl)-1-oxoisoindolin-4-yl)oxy)methyl)-2,3-difluorophenyl)thio)piperidin-1-yl)-3-fluorobenzonitrile], the IC50 was 0.18 nM. To `N#Cc1ccc(N2CCC(Sc3cc(F)c(COc4cccc5c4CN([C@H]4CCC(=O)NC4=O)C5=O)cc3F)CC2)c(F)c1` [Compound 11, (S)-4-(4-((4-(((2-(2,6-dioxopiperidin-3-yl)-1-oxoisoindolin-4-yl)oxy)methyl)-2,5-difluorophenyl)thio)piperidin-1-yl)-3-fluorobenzonitrile] belongs 0.22 nM; to `N#Cc1ccc(N2CCC(Sc3c(F)cc(COc4cccc5c4CN([C@H]4CCC(=O)NC4=O)C5=O)cc3F)CC2)c(F)c1` [Compound 12, (S)-4-(4-((4-(((2-(2,6-dioxopiperidin-3-yl)-1-oxoisoindolin-4-yl)oxy)methyl)-2,6-difluorophenyl)thio)piperidin-1-yl)-3-fluorobenzonitrile], 0.61 nM. The figure for `Cc1nc(SC2CCN(c3ccc(C#N)cc3F)CC2)ccc1COc1cccc2c1CN([C@H]1CCC(=O)NC1=O)C2=O` [Compound 13, (S)-4-(4-((5-(((2-(2,6-dioxopiperidin-3-yl)-1-oxoisoindolin-4-yl)oxy)methyl)-6-methylpyridin-2-yl)thio)piperidin-1-yl)-3-fluorobenzonitrile] is 1.78 nM; for `N#Cc1ccc(N2CCC(Sc3ccc(COc4cccc5c4CN([C@H]4CCC(=O)NC4=O)C5=O)cc3Cl)CC2)c(F)c1` [Compound 14, (S)-4-(4-((2-chloro-4-(((2-(2,6-dioxopiperidin-3-yl)-1-oxoisoindolin-4-yl)oxy)methyl)phenyl)thio)piperidin-1-yl)-3-fluorobenzonitrile] it is 0.27 nM.

`N#Cc1ccc(N2CCC(Sc3ccc(COc4cccc5c4CN([C@H]4CCC(=O)NC4=O)C5=O)cn3)C2)c(F)c1` (stereo partly drawn) [Compound 15, 4-(3-((5-(((2-((S)-2,6-dioxopiperidin-3-yl)-1-oxoisoindolin-4-yl)oxy)methyl)pyridin-2-yl)thio)pyrrolidin-1-yl)-3-fluorobenzonitrile]: the IC50 came to 0.75 nM.

For the compound `N#Cc1ccc(N2CC(Sc3ccc(COc4cccc5c4CN([C@H]4CCC(=O)NC4=O)C5=O)cc3)C2)c(F)c1` [Compound 16, (S)-4-(3-((4-(((2-(2,6-dioxopiperidin-3-yl)-1-oxoisoindolin-4-yl)oxy)methyl)phenyl)thio)azetidin-1-yl)-3-fluorobenzonitrile], the IC50 was found to be 1.13 nM.

Consider `N#Cc1ccc(N2CCC(Sc3ccc(COc4cccc5c4CN([C@H]4CCC(=O)NC4=O)C5=O)c(F)n3)CC2)c(F)c1` [Compound 17, (S)-4-(4-((5-(((2-(2,6-dioxopiperidin-3-yl)-1-oxoisoindolin-4-yl)oxy)methyl)-6-fluoropyridin-2-yl)thio)piperidin-1-yl)-3-fluorobenzonitrile], for which the IC50 was found to be 0.21 nM. The figure for `N#Cc1ccc(N2CCC(Sc3cc(F)c(COc4cccc5c4CN([C@H]4CCC(=O)NC4=O)C5=O)c(F)c3)CC2)c(F)c1` [Compound 18, (S)-4-(4-((4-(((2-(2,6-dioxopiperidin-3-yl)-1-oxoisoindolin-4-yl)oxy)methyl)-3,5-difluorophenyl)thio)piperidin-1-yl)-3-fluorobenzonitrile] is 0.34 nM.

Source of the values: patent publication US20230257366A1, “SULFUR-CONTAINING ISOINDOLINE DERIVATIVE, AND PREPARATION METHOD THEREFOR AND MEDICAL USE THEREOF” (JIANGSU HENGRUI PHARMACEUTICALS CO., LTD., priority 2020, published 2023).
